Article PMC8831520, “Small molecule SWELL1 complex induction improves glycemic control and nonalcoholic fatty liver disease in murine Type 2 diabetes” (Nature Communications, 2022)

How the values were obtained:
[1] = test system: T1, SWELL1 protein in 3T3-F442A adipocytes; assay: SWELL1 protein western blot in adipocytes; format: cell-based, murine; conditions: for SWELL1 protein level relative to vehicle-treated controls: 10 and 1 μM, 4 days, then 6 h serum starving
T1 construct: host or cells: 3T3-F442A preadipocytes and differentiated adipocytes (wild type)
Experimental: (§1) In the case of 3T3-F442A adipocytes, the WT and KO cells were treated with either vehicle (DMSO), 1 or 10 µM SN-40X (after 7–11 days of differentiation) for 96 h and then stimulated with 0 and 10 nM insulin/serum-containing media with vehicle (DMSO) or SN-40X for 15 min for SWELL1 detection. […] To simulate glucolipotoxicity, 8 mM sodium palmitate was dissolved in 18.4% fatty-acid free BSA at 37 °C in DMEM medium with 25 mM glucose to obtain a conjugation ratio of 1:3 palmitate:BSA[80].
Adipocytes were washed twice in ice-cold phosphate buffer saline and lysed in RIPA buffer (150 mM NaCl, 20 mM HEPES, 1% NP-40, 5 mM EDTA, pH 7.4) with proteinase/phosphatase inhibitors (Roche). The cell lysate was further sonicated in 10 s cycle intervals 2–3 times and centrifuged at 18,407×g for 30 min at 4 °C and repeated one more time to remove the excess fat. The supernatant was collected and further estimated for protein concentration using a DC protein assay kit (Bio-Rad). Fat and liver tissues were homogenized and suspended in RIPA buffer with inhibitors and further processed in a similar fashion as described above. HUVECs were also prepared in a similar fashion except the lysates were spun only once to remove the cells debris to obtain the clear supernatant. For islets, either human or mouse islets were washed twice with phosphate buffer saline (PBS) and lysed using RIPA buffer containing protease and phosphatase inhibitors. The lysate was further clarified by freezing in liquid nitrogen for about 10 s for three cycles. The supernatant was collected from the whole lysate centrifuged at 16,260×g for 20 min at 4 °C. […] For soleus muscle, the tissue was homogenized in a Bullet Blender homogenizer (Speed-9, Time-3 mins) in 8 volumes of ice-cold muscle homogenization buffer (50 mM Tris, 25 mM NaCl, 0.2% Nonidet P-40, 5 mM EGTA, 2.5 mM EDTA, 20 mM NaF, 20 mM Na4P2O7·10H2O, 2 mM Na3VO4, pH 7.4) supplemented with protease/phosphatase inhibitor (Roche). The homogenized lysate was centrifuged two times at 18,500×g for 20 min at 4 °C and supernatant was collected for protein estimation. Protein samples were further prepared by boiling in 2X or 4X Laemmli buffer. Approximately 10–60 µg of total protein was loaded in 4–15% gradient gel (Bio-Rad) for separation and protein transfer was carried out onto the PVDF membranes (Bio-Rad). Membranes were blocked in 5% BSA (or 5% milk for SWELL1) in TBST buffer (0.2 M Tris, 1.37 M NaCl, 0.2% Tween-20, pH 7.4) for 1 h and incubated with appropriate primary antibodies (5% BSA or milk) overnight at 4 °C. […] The images were further analyzed for band intensities using ImageJ software. […]

[2] = test system: T1, SWELL1 protein in 3T3-F442A adipocytes; assay: SWELL1 protein under glucolipotoxic stress (palmitate + glucose); format: cell-based, murine; conditions: 10 µM 96 h pretreatment, then 1 mM palmitate + 25 mM glucose 16 h
Experimental: as §1

T2D and non-T2D mice = assay: Metabolic phenotyping: fasting glucose, GTT, ITT
Experimental: All compounds were dissolved in Kolliphor® EL (Sigma, #C5135).
Mice were fasted for 6 h prior to glucose tolerance tests (GTT). Baseline glucose levels at 0 min timepoint (fasting glucose, FG) were measured from a blood sample collected from tail snipping using glucometer (Bayer Healthcare LLC). Either 1 or 0.75 g D-Glucose/kg body weight were injected (i.p.) for lean or HFD mice, respectively and glucose levels were measured at 5 or 7, 15, 30, 60, 90, and 120 min timepoints after injection. For insulin tolerance tests (ITTs), the mice were fasted for 4 h. Similar to GTTs, the baseline blood glucose levels were measured at 0 min timepoint and 15, 30, 60, 90, and 120 min timepoints post-injection (i.p.) of insulin (HumulinR, 1 U/kg bodyweight for lean mice or 1.25 U/kg body weight for HFD mice). […] The collected plasma was then measured for insulin content by using Ultra-Sensitive Mouse Insulin ELISA Kit (Crystal Chem, #90080). All mouse studies were performed in a blinded fashion.

In vivo pharmacokinetics = assay: In vivo pharmacokinetics; parameters: species or system mouse; conditions: for T-half / AUC(0-inf) / Cmax / Oral Bioavailability (AUCp.o./AUCi.v.): 5 mg/kg; for T-half / AUC(0-inf) / Cmax / Oral Bioavailability (AUCp.o./AUCi.v.) / time plasma concentrations exceed those sufficient for induction of SWELL1 signaling activity (>~100 nM): mice; for T-half / AUC(0-inf) / Cmax: plasma; for AUC(0-inf) / Cmax: male, C57/BL6, mouse; for time plasma concentrations exceed those sufficient for induction of SWELL1 signaling activity (>~100 nM): 5 mg/kg i.p. or p.o.
Experimental: Male C57/BL6 mice were used in the study and assessed for a single dose (5 mg/kg) administration. The compounds were prepared in Cremaphor for i.p. and p.o dose routes and in 5% ethanol, 10% Tween-20, and water mix for i.v. route at a final concentration of 1 mg/mL. […] The blood samples were collected in tubes with K2 EDTA anticoagulant and further processed to collect plasma by centrifugation at 1383×g at 5 °C for 10 min. Samples were further processed in LC/MS to determine the concentration of the compounds. Non-compartmental analysis was performed to obtain the PK parameters using the PKPlus software package (Simulation Plus). The area under the plasma concentration-time curve (AUCinf) was calculated from time 0 to infinity where the Cmax is the maximal concentration achieved in plasma and t1/2 is the terminal elimination half-life. Oral bioavailability was calculated as AUCOral/AUCIV*100.

[3] = 12–18 weeks HFD mice, 5 mg/kg/day × 4 days, pre- vs post-treatment

Row | SMILES | SWELL1 protein level relative to vehicle-treated controls [1] | prevention of palmitate/glucose-induced reduction of SWELL1 protein [2] | T-half (In vivo pharmacokinetics; Intraperitoneal) [h] | T-half (In vivo pharmacokinetics; Intravenous) [h] | T-half (In vivo pharmacokinetics; Oral) [h] | AUC(0-inf) (In vivo pharmacokinetics; ip, Intraperitoneal) [ng·h/mL] | Cmax (In vivo pharmacokinetics; ip, Intraperitoneal) [ng/mL] | AUC(0-inf) (In vivo pharmacokinetics; Intravenous) [ng·h/mL] | Cmax (In vivo pharmacokinetics; Intravenous) [ng/mL] | AUC(0-inf) (In vivo pharmacokinetics; Oral) [ng·h/mL] | Cmax (In vivo pharmacokinetics; Oral) [ng/mL] | Oral Bioavailability (AUCp.o./AUCi.v.) (In vivo pharmacokinetics) [%] | time plasma concentrations exceed those sufficient for induction of SWELL1 signaling activity (>~100 nM) (In vivo pharmacokinetics) [h] | other results
1 | CCCCC1(C2CCCC2)Cc2cc(OCC(=O)O)c(Cl)c(Cl)c2C1=O (stereo not drawn) [Inactive 1, 2-((2-butyl-6,7-dichloro-2-cyclopentyl-1-oxo-2,3-dihydro-1H-inden-5-yl)oxy)acetic acid] | did not significantly increase | – | – | – | – | – | – | – | – | – | – | – | – | –
2 | CCCCC1(C2CCCC2)Cc2cc(OCCCC(=O)O)c(Cl)c(Cl)c2C1=O (stereo not drawn) [SN-401, 4-((2-butyl-6,7-dichloro-2-cyclopentyl-1-oxo-2,3-dihydro-1H-inden-5-yl)oxy)butanoic acid] | – | entirely prevented | 2.056 | 1.428 | 2.585 | 23000 | 4370 | 5960 | 5440 | 4680 | 781 | 79 | 8 to 12 | SWELL1 protein expression ([1]; 3T3-F442A adipocytes, 10 µM, 96 h): 1.5 fold control expression; fasting blood glucose (FG), glucose tolerance (GTT), and insulin tolerance (ITT) (T2D and non-T2D mice; HFD-fed and KKAy T2D mice, 5 mg/kg i.p. 4–10 days): improved; hypoglycemia in control strain (T2D and non-T2D mice; KKAa parental strain, 5 mg/kg × 4–10 days): does not cause hypoglycemia; FG, GTT, and ITT compared to vehicle (T2D and non-T2D mice; lean, non-T2D, glucose-tolerant mice): similar; FG, GTT, and ITT compared to vehicle (T2D and non-T2D mice; same mice after 16 weeks of HFD-feeding, 4 days treatment): marked improvements; PK in adipose tissue (In vivo pharmacokinetics; iWAT, 5 mg/kg i.p. and p.o.): closely tracks serum concentrations
3 | CCCCC1(C2CCCC2)Cc2cc(OCCCCCC(=O)O)c(Cl)c(Cl)c2C1=O (stereo not drawn) [SN-406, 6-((2-butyl-6,7-dichloro-2-cyclopentyl-1-oxo-2,3-dihydro-1H-inden-5-yl)oxy)hexanoic acid] | 1.5–2.1 fold | entirely prevented | 1.809 | 0.7689 | 2.058 | 18200 | 4300 | 6530 | 15100 | 3130 | 661 | 48 | 8 to 12 | fasting blood glucose (T2D and non-T2D mice; [3]): markedly reduced; glucose tolerance (T2D and non-T2D mice; [3]): improved; insulin sensitivity based on HOMA-IR (T2D and non-T2D mice; HFD-T2D mice, compared to Inactive 1): trend toward improved insulin sensitivity; glucose tolerance (T2D and non-T2D mice; HFD-T2D mice, separate experiment, compared to Inactive 1): significantly improved
